In US12466816B2, “Fused cyclic compound capable of degrading protein and use thereof” (Medshine Discovery Inc., priority 2019, dated 2025):

Tested on: colorectal cancer cells and brain tumor cell lines
Experiment: Clone formation experiment
Format: cell-based
Settings: 10 μM; some colorectal cancer cells and brain tumor cell lines
Experimental: The effect of the compound on the monoclone-formation capacity of cells was examined. Cells were seeded in 6-well plates at low density (about 500 cells per well), 10 μM of WX106 was added for treatment, crystal violet staining (Beyotime Biotechnology, C0121) was performed when the cells grew into clones visible to the naked eye, and the number of clones was counted. All treatments were performed in at least three replicates.

## Cc1ccc(C(=O)Nc2ccc3occ(C4CCC(=O)NC4=O)c3c2)cc1Cl (stereo not shown) [WX106]
  clone formation: inhibits clone formation
